Test results reported in ChEMBL document CHEMBL4507273 (2021).

Experiments:
[1] = target: Dual specificity protein kinase CLK4 (Homo sapiens) (UniProt Q9HAZ1); conditions: Compound concentration 1000.0 nM
[2] = target: Membrane-associated tyrosine- and threonine-specific cdc2-inhibitory kinase (Homo sapiens) (UniProt Q99640); conditions: Compound concentration 1000.0 nM
[3] = target: Serine/threonine-protein kinase SIK1 (Homo sapiens) (UniProt P57059); conditions: Compound concentration 1000.0 nM
[4] = target: Serine/threonine-protein kinase STK11 (Homo sapiens) (UniProt Q15831); conditions: Compound concentration 1000.0 nM
[5] = target: Non-receptor tyrosine-protein kinase TYK2 (Homo sapiens) (UniProt P29597); conditions: Compound concentration 1000.0 nM
[6] = target: Homeodomain-interacting protein kinase 4 (Homo sapiens) (UniProt Q8NE63); conditions: Compound concentration 1000.0 nM
[7] = target: Ribosomal protein S6 kinase alpha-1 (Homo sapiens) (UniProt Q15418); conditions: Compound concentration 1000.0 nM
[8] = target: Serine/threonine-protein kinase 36 (Homo sapiens) (UniProt Q9NRP7); conditions: Compound concentration 1000.0 nM
[9] = target: Cyclin-dependent kinase 5 (Homo sapiens) (UniProt Q00535); conditions: Compound concentration 1000.0 nM
[10] = target: Peripheral plasma membrane protein CASK (Homo sapiens) (UniProt O14936); conditions: Compound concentration 1000.0 nM
[11] = target: Rho-associated protein kinase 1 (Homo sapiens) (UniProt Q13464); conditions: Compound concentration 1000.0 nM
[12] = test system: Phosphatidylinositol 4,5-bisphosphate 3-kinase catalytic subunit alpha isoform (Homo sapiens), P42336 [M1043I]; conditions: Compound concentration 1000.0 nM
[13] = test system: Tyrosine-protein kinase ABL1 (Homo sapiens), P00519 [Q252H]; conditions: Compound concentration 1000.0 nM
[14] = target: Cyclin-dependent kinase 4 (Homo sapiens) (UniProt P11802); conditions: Compound concentration 1000.0 nM
[15] = target: Serine/threonine-protein kinase ULK1 (Homo sapiens) (UniProt O75385); conditions: Compound concentration 1000.0 nM
[16] = target: Dual specificity tyrosine-phosphorylation-regulated kinase 1A (Homo sapiens) (UniProt Q13627); conditions: Compound concentration 1000.0 nM
[17] = target: Ephrin type-A receptor 7 (Homo sapiens) (UniProt Q15375); conditions: Compound concentration 1000.0 nM
[18] = test system: Mast/stem cell growth factor receptor Kit (Homo sapiens), P10721 [D816H]; conditions: Compound concentration 1000.0 nM
[19] = target: Cyclin-dependent kinase 15 (Homo sapiens) (UniProt Q96Q40); conditions: Compound concentration 1000.0 nM
[20] = target: Myosin light chain kinase (Homo sapiens) (UniProt Q32MK0); conditions: Compound concentration 1000.0 nM
[21] = target: Serine/threonine-protein kinase B-raf (Homo sapiens) (UniProt P15056); conditions: Compound concentration 1000.0 nM
[22] = target: Serine/threonine-protein kinase PLK1 (Homo sapiens) (UniProt P53350); conditions: Compound concentration 1000.0 nM
[23] = target: Tyrosine-protein kinase ABL1 (Homo sapiens) (UniProt P00519); conditions: Compound concentration 1000.0 nM
[24] = target: Tyrosine-protein kinase Srms (Homo sapiens) (UniProt Q9H3Y6); conditions: Compound concentration 1000.0 nM
[25] = test system: eIF-2-alpha kinase GCN2 (Homo sapiens), Q9P2K8 [S808G]; conditions: Compound concentration 1000.0 nM
[26] = target: Wee1-like protein kinase 2 (Homo sapiens) (UniProt P0C1S8); conditions: Compound concentration 1000.0 nM
[27] = target: STE20/SPS1-related proline-alanine-rich protein kinase (Homo sapiens) (UniProt Q9UEW8); conditions: Compound concentration 1000.0 nM
[28] = target: Tyrosine-protein kinase receptor TYRO3 (Homo sapiens) (UniProt Q06418); conditions: Compound concentration 1000.0 nM
[29] = target: Protein kinase C delta type (Homo sapiens) (UniProt Q05655); conditions: Compound concentration 1000.0 nM
[30] = target: Serine/threonine-protein kinase ICK (Homo sapiens) (UniProt Q9UPZ9); conditions: Compound concentration 1000.0 nM
[31] = target: Serine/threonine-protein kinase NIM1 (Homo sapiens) (UniProt Q8IY84); conditions: Compound concentration 1000.0 nM
[32] = target: Proto-oncogene tyrosine-protein kinase ROS (Homo sapiens) (UniProt P08922); conditions: Compound concentration 1000.0 nM
[33] = target: Serine/threonine-protein kinase PAK 1 (Homo sapiens) (UniProt Q13153); conditions: Compound concentration 1000.0 nM
[34] = target: BMP-2-inducible protein kinase (Homo sapiens) (UniProt Q9NSY1); conditions: Compound concentration 1000.0 nM
[35] = target: Cyclin-dependent kinase 4 (Homo sapiens) (UniProt P11802); conditions: Compound concentration 1000.0 nM; remark: listed apart in the source
[36] = target: Dual specificity protein kinase TTK (Homo sapiens) (UniProt P33981); conditions: Compound concentration 1000.0 nM
[37] = target: MAP kinase-activated protein kinase 5 (Homo sapiens) (UniProt Q8IW41); conditions: Compound concentration 1000.0 nM
[38] = target: Alpha-1D adrenergic receptor (Homo sapiens) (UniProt P25100); conditions: Compound concentration 10.0 uM
[39] = target: Serine/threonine-protein kinase MRCK beta (Homo sapiens) (UniProt Q9Y5S2); conditions: Compound concentration 1000.0 nM
[40] = target: Cyclin-G-associated kinase (Homo sapiens) (UniProt O14976); conditions: Compound concentration 1000.0 nM
[41] = target: Serine/threonine-protein kinase 38-like (Homo sapiens) (UniProt Q9Y2H1); conditions: Compound concentration 1000.0 nM
[42] = target: SRSF protein kinase 2 (Homo sapiens) (UniProt P78362); conditions: Compound concentration 1000.0 nM
[43] = target: Activin receptor type-1B (Homo sapiens) (UniProt P36896); conditions: Compound concentration 1000.0 nM
[44] = target: Serine/threonine-protein kinase PAK 5 (Homo sapiens) (UniProt Q9P286); conditions: Compound concentration 1000.0 nM
[45] = target: Calcium/calmodulin-dependent protein kinase type 1B (Homo sapiens) (UniProt Q6P2M8); conditions: Compound concentration 1000.0 nM

Chain of Cyclin-dependent kinase 4 (Homo sapiens) (P11802 whole entry): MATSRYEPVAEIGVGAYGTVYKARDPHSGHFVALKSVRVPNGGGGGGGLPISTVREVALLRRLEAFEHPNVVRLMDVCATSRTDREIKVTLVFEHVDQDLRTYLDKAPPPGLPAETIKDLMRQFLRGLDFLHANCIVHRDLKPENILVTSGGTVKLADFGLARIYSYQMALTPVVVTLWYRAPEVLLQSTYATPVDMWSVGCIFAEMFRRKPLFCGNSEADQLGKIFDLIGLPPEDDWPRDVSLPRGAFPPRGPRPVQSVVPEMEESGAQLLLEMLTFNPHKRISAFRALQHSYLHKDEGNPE
Chain of Rho-associated protein kinase 1 (Homo sapiens) (Q13464 2-1354 limits assumed): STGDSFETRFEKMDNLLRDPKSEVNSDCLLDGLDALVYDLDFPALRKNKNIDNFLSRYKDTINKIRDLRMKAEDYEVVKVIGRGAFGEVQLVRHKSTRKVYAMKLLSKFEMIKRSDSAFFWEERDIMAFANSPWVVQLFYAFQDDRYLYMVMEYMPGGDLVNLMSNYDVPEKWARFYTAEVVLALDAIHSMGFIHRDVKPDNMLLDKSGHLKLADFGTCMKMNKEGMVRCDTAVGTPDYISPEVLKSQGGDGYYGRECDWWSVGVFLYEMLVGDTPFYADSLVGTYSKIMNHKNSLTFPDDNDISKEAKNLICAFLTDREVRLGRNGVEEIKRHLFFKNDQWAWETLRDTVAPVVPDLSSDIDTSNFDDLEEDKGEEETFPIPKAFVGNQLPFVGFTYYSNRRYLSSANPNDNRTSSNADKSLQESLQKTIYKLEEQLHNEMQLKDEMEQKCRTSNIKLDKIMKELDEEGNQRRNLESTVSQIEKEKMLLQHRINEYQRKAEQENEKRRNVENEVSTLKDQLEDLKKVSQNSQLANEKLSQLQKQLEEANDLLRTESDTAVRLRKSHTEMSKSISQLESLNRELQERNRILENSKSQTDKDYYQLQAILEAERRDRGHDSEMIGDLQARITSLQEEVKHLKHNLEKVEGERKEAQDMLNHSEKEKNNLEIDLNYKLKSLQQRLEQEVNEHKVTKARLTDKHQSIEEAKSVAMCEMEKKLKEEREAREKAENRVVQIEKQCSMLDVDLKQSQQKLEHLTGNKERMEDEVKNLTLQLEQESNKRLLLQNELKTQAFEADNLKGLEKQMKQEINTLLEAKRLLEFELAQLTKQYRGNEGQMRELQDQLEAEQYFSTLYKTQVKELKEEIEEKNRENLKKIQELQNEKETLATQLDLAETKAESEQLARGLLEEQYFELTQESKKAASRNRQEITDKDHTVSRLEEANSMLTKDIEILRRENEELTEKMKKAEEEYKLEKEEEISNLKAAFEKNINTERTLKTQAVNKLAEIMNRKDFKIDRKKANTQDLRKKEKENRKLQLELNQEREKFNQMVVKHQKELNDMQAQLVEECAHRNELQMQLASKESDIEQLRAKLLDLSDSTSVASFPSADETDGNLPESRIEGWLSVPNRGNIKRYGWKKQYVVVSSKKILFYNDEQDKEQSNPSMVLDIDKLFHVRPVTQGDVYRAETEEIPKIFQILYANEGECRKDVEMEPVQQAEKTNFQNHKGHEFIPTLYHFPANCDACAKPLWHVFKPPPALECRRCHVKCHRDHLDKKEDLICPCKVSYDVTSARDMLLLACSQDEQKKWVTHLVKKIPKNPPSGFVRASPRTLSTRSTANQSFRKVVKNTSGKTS
Chain of SRSF protein kinase 2 (Homo sapiens) (P78362 whole entry, looked up): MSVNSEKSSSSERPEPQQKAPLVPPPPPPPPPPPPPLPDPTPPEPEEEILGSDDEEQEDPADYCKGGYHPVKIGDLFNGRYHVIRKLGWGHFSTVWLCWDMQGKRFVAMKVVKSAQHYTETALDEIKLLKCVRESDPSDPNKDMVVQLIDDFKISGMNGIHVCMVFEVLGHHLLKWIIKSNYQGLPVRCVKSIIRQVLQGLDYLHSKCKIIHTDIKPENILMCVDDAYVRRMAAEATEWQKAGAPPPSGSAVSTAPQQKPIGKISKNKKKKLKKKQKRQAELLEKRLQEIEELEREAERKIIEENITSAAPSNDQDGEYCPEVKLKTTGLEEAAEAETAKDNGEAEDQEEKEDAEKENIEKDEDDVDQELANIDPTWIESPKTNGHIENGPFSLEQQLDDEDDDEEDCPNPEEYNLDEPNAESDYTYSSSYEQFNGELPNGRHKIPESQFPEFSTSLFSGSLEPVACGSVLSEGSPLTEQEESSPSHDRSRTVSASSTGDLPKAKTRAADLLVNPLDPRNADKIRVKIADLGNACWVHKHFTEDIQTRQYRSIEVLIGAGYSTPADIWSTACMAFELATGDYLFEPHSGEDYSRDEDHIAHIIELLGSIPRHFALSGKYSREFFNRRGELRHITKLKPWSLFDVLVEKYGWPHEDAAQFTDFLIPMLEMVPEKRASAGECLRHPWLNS
Chain of Wee1-like protein kinase 2 (Homo sapiens) (P0C1S8 whole entry, looked up): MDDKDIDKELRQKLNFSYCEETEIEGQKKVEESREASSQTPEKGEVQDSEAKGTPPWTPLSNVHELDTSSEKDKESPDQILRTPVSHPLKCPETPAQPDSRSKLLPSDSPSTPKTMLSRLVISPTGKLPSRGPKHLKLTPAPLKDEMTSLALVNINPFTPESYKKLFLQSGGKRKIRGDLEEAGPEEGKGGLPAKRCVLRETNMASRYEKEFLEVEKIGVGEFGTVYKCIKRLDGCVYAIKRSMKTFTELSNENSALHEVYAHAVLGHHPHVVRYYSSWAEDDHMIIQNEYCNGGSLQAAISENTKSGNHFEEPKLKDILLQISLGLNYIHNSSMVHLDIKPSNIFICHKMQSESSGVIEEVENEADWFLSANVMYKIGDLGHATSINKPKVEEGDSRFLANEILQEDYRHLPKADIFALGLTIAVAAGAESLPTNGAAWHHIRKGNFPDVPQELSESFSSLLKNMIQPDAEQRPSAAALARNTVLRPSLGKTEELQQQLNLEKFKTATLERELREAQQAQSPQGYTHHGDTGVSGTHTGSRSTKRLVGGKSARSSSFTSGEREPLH
Chain of Serine/threonine-protein kinase NIM1 (Homo sapiens) (Q8IY84 whole entry): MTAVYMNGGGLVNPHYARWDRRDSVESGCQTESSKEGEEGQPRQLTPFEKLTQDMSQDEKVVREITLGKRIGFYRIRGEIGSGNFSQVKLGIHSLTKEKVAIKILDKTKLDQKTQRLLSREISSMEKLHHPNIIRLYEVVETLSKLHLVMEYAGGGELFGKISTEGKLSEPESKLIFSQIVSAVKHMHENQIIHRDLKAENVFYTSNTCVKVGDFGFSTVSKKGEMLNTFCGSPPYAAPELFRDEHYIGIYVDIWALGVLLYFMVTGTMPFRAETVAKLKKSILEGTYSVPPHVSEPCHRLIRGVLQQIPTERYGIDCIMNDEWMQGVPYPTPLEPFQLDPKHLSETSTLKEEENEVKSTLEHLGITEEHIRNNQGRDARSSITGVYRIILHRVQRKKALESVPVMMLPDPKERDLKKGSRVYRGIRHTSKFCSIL
Chain of Cyclin-dependent kinase 5 (Homo sapiens) (Q00535 whole entry, looked up): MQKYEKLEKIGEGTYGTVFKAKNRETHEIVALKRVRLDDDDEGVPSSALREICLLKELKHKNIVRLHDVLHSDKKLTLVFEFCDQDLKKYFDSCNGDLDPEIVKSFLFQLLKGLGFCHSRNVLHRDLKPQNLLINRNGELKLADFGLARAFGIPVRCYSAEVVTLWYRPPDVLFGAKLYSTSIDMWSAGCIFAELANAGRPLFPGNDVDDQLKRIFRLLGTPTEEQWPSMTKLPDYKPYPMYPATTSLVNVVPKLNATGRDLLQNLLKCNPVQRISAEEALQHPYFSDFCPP
Chain of Serine/threonine-protein kinase 36 (Homo sapiens) (Q9NRP7 whole entry): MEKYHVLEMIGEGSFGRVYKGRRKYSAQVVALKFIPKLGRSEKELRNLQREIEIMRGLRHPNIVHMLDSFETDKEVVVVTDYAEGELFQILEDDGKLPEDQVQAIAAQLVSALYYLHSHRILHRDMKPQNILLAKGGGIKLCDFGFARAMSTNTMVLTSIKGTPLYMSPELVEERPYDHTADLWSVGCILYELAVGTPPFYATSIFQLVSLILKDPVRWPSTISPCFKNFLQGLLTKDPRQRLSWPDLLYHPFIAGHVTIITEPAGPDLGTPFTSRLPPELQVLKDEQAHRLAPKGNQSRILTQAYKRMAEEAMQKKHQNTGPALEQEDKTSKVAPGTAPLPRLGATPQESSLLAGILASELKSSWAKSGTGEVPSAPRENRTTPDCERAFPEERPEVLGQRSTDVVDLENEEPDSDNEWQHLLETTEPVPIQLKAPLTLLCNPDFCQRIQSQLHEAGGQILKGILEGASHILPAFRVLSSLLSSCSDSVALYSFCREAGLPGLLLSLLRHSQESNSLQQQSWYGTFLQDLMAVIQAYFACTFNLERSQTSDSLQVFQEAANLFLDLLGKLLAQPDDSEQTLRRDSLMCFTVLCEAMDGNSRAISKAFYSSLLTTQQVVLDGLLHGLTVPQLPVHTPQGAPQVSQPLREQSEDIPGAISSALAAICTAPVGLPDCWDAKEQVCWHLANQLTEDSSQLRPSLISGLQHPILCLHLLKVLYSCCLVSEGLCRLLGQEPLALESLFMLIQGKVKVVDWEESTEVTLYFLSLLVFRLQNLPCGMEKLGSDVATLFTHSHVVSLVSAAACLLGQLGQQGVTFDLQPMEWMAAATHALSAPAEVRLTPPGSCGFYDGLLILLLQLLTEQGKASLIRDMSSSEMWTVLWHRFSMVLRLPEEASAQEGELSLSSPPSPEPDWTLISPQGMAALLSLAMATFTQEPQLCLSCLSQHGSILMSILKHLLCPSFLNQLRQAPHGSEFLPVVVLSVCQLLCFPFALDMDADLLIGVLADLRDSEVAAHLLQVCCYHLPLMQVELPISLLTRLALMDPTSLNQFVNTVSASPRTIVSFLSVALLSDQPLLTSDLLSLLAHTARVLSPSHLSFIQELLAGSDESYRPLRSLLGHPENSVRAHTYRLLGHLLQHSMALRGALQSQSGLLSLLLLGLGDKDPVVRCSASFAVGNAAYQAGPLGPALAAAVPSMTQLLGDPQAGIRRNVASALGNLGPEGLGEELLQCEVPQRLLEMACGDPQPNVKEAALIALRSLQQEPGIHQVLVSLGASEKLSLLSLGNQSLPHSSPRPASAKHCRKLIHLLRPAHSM

CNCc1ccccc1-c1csc([C@@H](C)Nc2nc(C)nc3cc(OC)c(OC)cc23)c1 [BAY-293]
residual activity [1]: 100% | residual activity [2]: 93% | residual activity [3]: 91% | residual activity [4]: 96% | residual activity [5]: 99% | residual activity [6]: 86% | residual activity [7]: 76% | residual activity [8]: 100% | residual activity [9]: 78% | residual activity [10]: 81% | residual activity [11]: 91% | residual activity [12]: 56% | residual activity [13]: 69% | residual activity [14]: 88% | residual activity [15]: 88% | residual activity [16]: 88% | residual activity [17]: 100% | residual activity [18]: 85% | residual activity [19]: 100% | residual activity [20]: 96% | residual activity [21]: 100% | residual activity [22]: 80% | residual activity [23]: 80% | residual activity [24]: 92% | residual activity [25]: 99% | residual activity [26]: 100% | residual activity [27]: 100% | residual activity [28]: 89% | residual activity [29]: 98% | residual activity [30]: 82% | residual activity [31]: 93% | residual activity [32]: 84% | residual activity [33]: 97% | residual activity [34]: 87% | residual activity [35]: 100% | residual activity [36]: 97% | residual activity [37]: 88% | inhibition [38]: 75% | residual activity [39]: 89% | residual activity [40]: 88% | residual activity [41]: 86% | residual activity [42]: 61% | residual activity [43]: 91% | residual activity [44]: 95% | residual activity [45]: 95%

CNCc1ccccc1-c1csc([C@H](C)Nc2nc(C)nc3cc(OC)c(OC)cc23)c1 [BAY-294]
residual activity [1]: 100% | residual activity [2]: 100% | residual activity [3]: 100% | residual activity [4]: 100% | residual activity [5]: 100% | residual activity [6]: 91% | residual activity [7]: 93% | residual activity [8]: 100% | residual activity [9]: 98% | residual activity [10]: 71% | residual activity [11]: 93% | residual activity [12]: 100% | residual activity [13]: 76% | residual activity [14]: 77% | residual activity [15]: 91% | residual activity [16]: 80% | residual activity [17]: 100% | residual activity [18]: 95% | residual activity [19]: 100% | residual activity [20]: 100% | residual activity [21]: 97% | residual activity [22]: 85% | residual activity [23]: 87% | residual activity [24]: 88% | residual activity [25]: 100% | residual activity [26]: 100% | residual activity [27]: 100% | residual activity [28]: 100% | residual activity [29]: 100% | residual activity [30]: 86% | residual activity [31]: 90% | residual activity [32]: 100% | residual activity [33]: 99% | residual activity [34]: 79% | residual activity [35]: 100% | residual activity [36]: 100% | residual activity [37]: 100% | inhibition [38]: 81.2% | residual activity [39]: 100% | residual activity [40]: 90% | residual activity [41]: 94% | residual activity [42]: 52% | residual activity [43]: 100% | residual activity [44]: 100% | residual activity [45]: 100%
